SMILES strings stand for the structures. Active and inactive are the calls of the source. Where only a bound is given, the exact number is not on record here.

Holding throughout (assay type): functional
The nature of experiment [1]: SAR analysis of small molecule activators of Apaf-1 using a LZ-Caspase-9/Caspase-3 Fluorescent Selectivity assay - Set 2. The following applies: read-out: EC50_Mean.
Experiment [2] addresses T1, Apoptotic protease-activating factor 1 (Homo sapiens, UniProt O14727).
T1 sequence (O14727 whole entry): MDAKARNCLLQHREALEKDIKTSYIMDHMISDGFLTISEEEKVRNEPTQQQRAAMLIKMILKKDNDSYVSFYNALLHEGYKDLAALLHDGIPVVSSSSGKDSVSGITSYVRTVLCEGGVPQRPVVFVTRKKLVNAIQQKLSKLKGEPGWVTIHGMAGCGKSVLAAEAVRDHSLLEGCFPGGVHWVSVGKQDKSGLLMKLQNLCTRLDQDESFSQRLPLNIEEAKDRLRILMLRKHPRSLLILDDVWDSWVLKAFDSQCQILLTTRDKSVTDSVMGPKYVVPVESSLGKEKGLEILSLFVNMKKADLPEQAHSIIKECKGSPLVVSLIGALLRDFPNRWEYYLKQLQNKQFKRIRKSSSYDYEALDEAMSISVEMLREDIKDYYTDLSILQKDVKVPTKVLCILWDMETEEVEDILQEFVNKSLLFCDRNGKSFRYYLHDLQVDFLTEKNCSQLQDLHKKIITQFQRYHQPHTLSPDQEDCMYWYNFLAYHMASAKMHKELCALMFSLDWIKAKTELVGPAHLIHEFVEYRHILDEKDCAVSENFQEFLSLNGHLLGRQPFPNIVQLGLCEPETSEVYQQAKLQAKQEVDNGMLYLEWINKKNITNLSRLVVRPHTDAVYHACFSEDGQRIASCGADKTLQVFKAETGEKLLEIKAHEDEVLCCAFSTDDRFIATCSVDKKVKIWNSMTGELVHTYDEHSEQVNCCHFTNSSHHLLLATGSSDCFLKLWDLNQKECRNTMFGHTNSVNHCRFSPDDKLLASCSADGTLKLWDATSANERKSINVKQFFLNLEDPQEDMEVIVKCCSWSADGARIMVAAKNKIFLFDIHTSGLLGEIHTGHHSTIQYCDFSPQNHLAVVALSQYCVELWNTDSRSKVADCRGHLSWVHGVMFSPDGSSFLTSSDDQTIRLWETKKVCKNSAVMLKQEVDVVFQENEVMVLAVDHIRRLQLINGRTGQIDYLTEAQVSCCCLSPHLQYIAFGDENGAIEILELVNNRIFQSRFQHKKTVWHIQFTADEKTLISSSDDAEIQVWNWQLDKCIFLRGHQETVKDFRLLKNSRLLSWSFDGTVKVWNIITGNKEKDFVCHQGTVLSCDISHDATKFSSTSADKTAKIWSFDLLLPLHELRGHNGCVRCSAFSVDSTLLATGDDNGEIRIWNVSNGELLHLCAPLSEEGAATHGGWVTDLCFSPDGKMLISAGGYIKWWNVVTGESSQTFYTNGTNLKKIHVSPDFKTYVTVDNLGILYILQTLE
Nature of the experiment: SAR analysis of small molecule Activators of Apaf-1 in a Fluorescent assay - set 2. Particulars: read-out: EC50_Mean.

Experiment [3] has as its target Melanin-concentrating hormone receptor 1 (Homo sapiens, UniProt Q99705). Nature of the experiment: Late-stage fluorescence-based counterscreen for antagonists of the G-protein coupled receptor 7 (GPR7): cell-based dose response assay to identify antagonists of the melanin-concentrating hormone receptor 1 (MCHR1) Set 6.

Melanin-concentrating hormone receptor 1, sequence (Q99705 whole entry): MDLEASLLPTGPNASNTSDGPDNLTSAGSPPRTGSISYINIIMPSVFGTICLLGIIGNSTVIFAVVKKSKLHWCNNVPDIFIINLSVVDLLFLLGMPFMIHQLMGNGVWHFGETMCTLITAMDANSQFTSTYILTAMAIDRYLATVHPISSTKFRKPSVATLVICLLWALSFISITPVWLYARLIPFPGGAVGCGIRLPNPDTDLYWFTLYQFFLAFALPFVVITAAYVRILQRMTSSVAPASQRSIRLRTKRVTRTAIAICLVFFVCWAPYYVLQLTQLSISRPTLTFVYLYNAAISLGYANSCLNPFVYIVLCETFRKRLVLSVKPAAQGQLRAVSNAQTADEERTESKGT

For `COc1ccc(OC)c(C2=NOC(C(=O)O)C2)c1` (stereo not drawn), the EC50 in experiment [1] and in experiment [2] was > 100 µM (inactive) each time.

A word on the IC50: it is the concentration at which inhibition is half-maximal. As for `COC(=O)c1ccccc1Cn1ncc(Cl)c(Oc2ccc(OC)cc2)c1=O`, the IC50 in experiment [3] was 1.16 µM (active).

Source of the values: ChEMBL document CHEMBL1201862, “PubChem BioAssay data set” (2004).
